Experimental data reported in paper PMC4666645 (PLoS Pathogens, 2015).
Structures can show the parent of a compound that is named as a salt. Where two headings read alike, the source gives them in different places.

Experiments:
[1] = test system: C. elegans expressing Hco-26/27; experiment: Thrashing assay on transgenic C. elegans expressing Hco-26/27; assay type: in vivo, Caenorhabditis elegans
From the text: (§1) Taking advantage of the absence of acr-26 and acr-27 homologs in the C. elegans genome, we used wild type N2 worms to express these two parasitic nematode AChR subunits. […] For Peq-ACR-26 and Peq-ACR-27, even though the localization of these subunits in Parascaris equorum remains to be investigated in more detail, we also used myo3 as a promoter in order to compare the functional impact of Hco-26/27 and Peq-26/27 on both motility and drug sensitivity in transgenic C. elegans.
(§2) Worms were maintained at 20°C on nematode growth medium (NGM) plates and fed on a bacterial lawn (Escherichia coli OP50). Bristol N2 was used as a reference wild-type C. elegans strain. Dose-response assays were performed on gravid adults placed in wells of a 96-well plate containing M9 salt solution (3 g/L KH2PO4, 6 g/L Na2HPO4, 5 g/L NaCl, and 1 mM MgSO4 with BSA at 0.1%) with varying anthelmintic concentrations. After 10 min, worm thrashing was counted for 1 min. A thrash was defined as a change in the direction of bending at the mid-body to return to the initial position. For each drug concentration, 30 worms were tested. Hco-acr-26, Hco-acr-27, Peq-acr-26 and Peq-acr-27 coding sequences were sub-cloned into the pPD96.52 (Addgene) vector containing the muscle promoter Pmyo3. Primer sequences containing the suitable restriction sites are listed in S3 Table. Extrachromosomal transgenic strains of C. elegans were obtained by micro-injecting DNA into the gonads of young adult hermaphrodite worms as described. N2 worms were injected with different mixes containing Pmyo3::Hco-acr-26; Pmyo3::Hco-acr-27; Pmyo3::Peq-acr-26; Pmyo3::Peq-acr-27 alone or in combination (Pmyo3::Hco-acr-26 + Pmyo3::Hco-acr-27 or Pmyo3::Peq-acr-26 + Pmyo3::Peq-acr-27) with a final concentration of 40 ng/μl for each plasmid. The plasmid pPD118.33_Pmyo2::gfp (Addgene) was co-injected at 25 ng/μl as a transformation marker. […] Thrashes produced by each worm during 1 minute were counted after a 10 minutes equilibration period. After drug application, thrashes were counted after 10, 20 and 30 minutes of exposure. […]

[2] = molecular target: Hco-26/27 receptor (Haemonchus contortus, UniProt A9XX30+S4VAP0); experiment: cell-based
Hco-26/27 receptor, sequence (A9XX30 entry or part of it): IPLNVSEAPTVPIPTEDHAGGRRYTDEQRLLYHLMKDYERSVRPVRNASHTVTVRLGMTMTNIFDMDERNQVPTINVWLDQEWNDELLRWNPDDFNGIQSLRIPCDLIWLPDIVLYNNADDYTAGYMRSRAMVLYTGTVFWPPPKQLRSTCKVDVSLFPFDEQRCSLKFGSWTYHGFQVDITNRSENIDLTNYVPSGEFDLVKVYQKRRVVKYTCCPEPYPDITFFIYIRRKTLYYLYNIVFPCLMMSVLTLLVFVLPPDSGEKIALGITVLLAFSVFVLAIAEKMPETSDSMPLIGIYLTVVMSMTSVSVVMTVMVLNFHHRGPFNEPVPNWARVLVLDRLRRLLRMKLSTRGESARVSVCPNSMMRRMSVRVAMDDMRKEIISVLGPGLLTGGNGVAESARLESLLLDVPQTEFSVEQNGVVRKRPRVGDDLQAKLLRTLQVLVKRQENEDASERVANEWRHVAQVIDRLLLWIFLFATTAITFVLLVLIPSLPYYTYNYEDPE
Hco-26/27 receptor, sequence (S4VAP0 entry or part of it): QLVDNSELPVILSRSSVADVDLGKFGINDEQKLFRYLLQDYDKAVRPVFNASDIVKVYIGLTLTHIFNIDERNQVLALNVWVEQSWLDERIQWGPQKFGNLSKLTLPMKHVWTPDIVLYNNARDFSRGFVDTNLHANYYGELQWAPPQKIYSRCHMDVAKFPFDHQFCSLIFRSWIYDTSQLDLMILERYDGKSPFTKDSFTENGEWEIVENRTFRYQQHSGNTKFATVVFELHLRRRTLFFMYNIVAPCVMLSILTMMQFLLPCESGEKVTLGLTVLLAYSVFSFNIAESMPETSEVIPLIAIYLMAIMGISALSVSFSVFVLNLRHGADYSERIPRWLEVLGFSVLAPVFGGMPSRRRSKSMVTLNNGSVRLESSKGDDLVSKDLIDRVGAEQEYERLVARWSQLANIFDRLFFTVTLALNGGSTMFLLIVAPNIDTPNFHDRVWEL
From the text: In order to investigate if the overlapping expression contributed to functional receptors, we co-expressed Hco-ACR-26 and Hco-ACR-27 in Xenopus laevis oocytes. We have previously reported that the functional expression of nematode muscle AChRs in Xenopus oocytes requires the addition of ancillary proteins. Therefore, cRNAs encoding the subunits Hco-ACR-26 and Hco-ACR-27, in combination with three ancillary proteins (Hco-ric-3.1, Hco-unc-74 and Hco-unc-50) were co-injected into Xenopus oocytes. […] Subsequently, different cRNA combinations were injected into Xenopus oocytes in order to determine the minimal subunit combination leading to the expression of a functional receptor and verify the ancillary factor requirement.
The subunit stoichiometry has been previously reported to impact the pharmacological properties of some nematode AChRs expressed in Xenopus oocytes.
H. contortus and P. equorum acr-26 and acr-27 cDNAs were PCR-amplified using primers containing a restriction site in order to be sub-cloned into the expression vector pTB207 that is suitable for in vitro transcription. Primers are listed in S3 Table. The resulting plasmids were linearized with the NheI restriction enzyme (Fermantas) and used as templates for cRNA synthesis using the T7 mMessage mMachine kit (Ambion). Xenopus laevis ovaries were obtained from the University of Rennes, France (CRB Xenope) and defolliculated using 2 mg/ml collagenase type II (Gibco) in the incubation solution containing: 100 mM NaCl, 2 mM KCl, 1.8 mM CaCl2.2H2O, 1 mM MgCl2.6H2O, 5 mM HEPES, 2.5 mM C3H3NaO3, pH 7.5, supplemented with penicillin 100 U/mL and streptomycin 100 μg/mL). The oocytes were injected in the animal pole with a total volume of 36 nL of cRNA mix containing 50 ng/μL of each cRNA in RNase-free water using the Drummond nanoject II microinjector. Microinjected oocytes were kept at 20°C in incubation medium for 4 days to allow the receptors expression. Two-electrode voltage-clamp recordings were carried out using an Oocyte Clamp OC-725C amplifier (Warner instrument) in oocytes being voltage-clamped at -60mV. All agonist preparations were prepared with recording buffer (100 mM NaCl, 2.5 mM KCl, 1 mM CaCl2.2H2O, 5 mM HEPES, pH 7.3). Currents were recorded and analyzed using the pCLAMP 10.4 package (Molecular Devices).

[3] = test system: C. elegans expressing Peq-26/27; experiment: Thrashing assay on transgenic C. elegans expressing Peq-26/27; assay type: in vivo, Caenorhabditis elegans
From the text: as §1, §2

[4] = test system: C. elegans N2; experiment: Dose-response thrashing assay on wild-type C. elegans N2; assay type: in vivo, Caenorhabditis elegans; conditions: for Minimal drug concentration causing significant reduction in wild-type motility: 10 min exposure
Method: Worms were maintained at 20°C on nematode growth medium (NGM) plates and fed on a bacterial lawn (Escherichia coli OP50). Bristol N2 was used as a reference wild-type C. elegans strain. Dose-response assays were performed on gravid adults placed in wells of a 96-well plate containing M9 salt solution (3 g/L KH2PO4, 6 g/L Na2HPO4, 5 g/L NaCl, and 1 mM MgSO4 with BSA at 0.1%) with varying anthelmintic concentrations. After 10 min, worm thrashing was counted for 1 min. A thrash was defined as a change in the direction of bending at the mid-body to return to the initial position. For each drug concentration, 30 worms were tested. Hco-acr-26, Hco-acr-27, Peq-acr-26 and Peq-acr-27 coding sequences were sub-cloned into the pPD96.52 (Addgene) vector containing the muscle promoter Pmyo3. Primer sequences containing the suitable restriction sites are listed in S3 Table. Extrachromosomal transgenic strains of C. elegans were obtained by micro-injecting DNA into the gonads of young adult hermaphrodite worms as described. N2 worms were injected with different mixes containing Pmyo3::Hco-acr-26; Pmyo3::Hco-acr-27; Pmyo3::Peq-acr-26; Pmyo3::Peq-acr-27 alone or in combination (Pmyo3::Hco-acr-26 + Pmyo3::Hco-acr-27 or Pmyo3::Peq-acr-26 + Pmyo3::Peq-acr-27) with a final concentration of 40 ng/μl for each plasmid. The plasmid pPD118.33_Pmyo2::gfp (Addgene) was co-injected at 25 ng/μl as a transformation marker. For each mixes, at least two independent lines were generated. For each line, thrashing assays were carried on at least 12 F1-worms carrying the selection marker. L4 larvae from N2 and transformed worms were transferred one day before the thrashing assay on NGM plate. One young adult was placed in each well of a 12-well plate containing M9 salt buffer. Thrashes produced by each worm during 1 minute were counted after a 10 minutes equilibration period. After drug application, thrashes were counted after 10, 20 and 30 minutes of exposure. Experimental data are shown as mean ± SEM. Statistical comparisons were done using the paired or unpaired Student’s t test or one-way ANOVA with Tukey’s multiple comparison test. A level of p<0.05 was considered significant. For each line, expression of the introduced acr-26 and/or acr-27 coding sequences from H. contortus or P. equorum was confirmed by RT-PCR experiments performed on 12 pooled worms. A partial sequence corresponding to the C. elegans endogenous AChR unc-38 transcript was amplified with primers designed on two independent exons in order to control the cDNA template quality. Primer sequences are listed in S3 Table.
Supplementary file ppat.1005267.s004.tif: S4 Fig Thrashing assays performed on C. elegans (N2) with different anthelmintic molecules. […] Thrashes of gravid wild-type adults were counted for one minute after 10 minutes of drug exposure. […] Results are expressed as mean ± SEM derived from three independent sets of experiments. For each treatment, 30 worms were included in the analysis. […] Statistical analyses were performed using a One-Way Anova with Tukey’s Multiple Comparison Test with **p<0.01, ***p<0.001. (TIF) Click here for additional data file.

[5] = read-out: Relative maximal current (Imax) normalized to 100 μM acetylcholine, cRNA ratio 1:1 26/27, 100 μM agonist
[6] = read-out: Relative maximal current (Imax) normalized to 100 μM acetylcholine, cRNA ratio 1:5 26/27, 100 μM agonist
[7] = read-out: Relative maximal current (Imax) normalized to 100 μM acetylcholine, cRNA ratio 5:1 26/27, 100 μM agonist
[8] = Caenorhabditis elegans, 10 min, 10 min drug exposure, gravid adults, read-out: IC50 (reduction of thrashing)
[9] = read-out: Current elicited, % of ACh response, 100 μM agonist, normalized to 100 μM ACh current, equal subunit ratio
[10] = 50 μM Pyr, 10 minutes of drug exposure

SMILES	Change in sensitivity versus N2 ([1]; 5 μM Lev)	Current elicited, % of ACh response ([2]; 100 μM agonist, normalized to 100 μM ACh current, equal subunit ratio)	Emax at 100 µM [2, 5] [%]	Emax at 100 µM [2, 6] [%]	Emax at 100 µM [2, 7] [%]	Change in sensitivity versus N2 ([3]; 5 μM Lev)	Minimal drug concentration causing significant reduction in wild-type motility [4] [µM]	IC50 [4, 8] [µM]	Reduction of thrashing motility ([1]; 40 μM Mor, 10 minutes exposure) [%]	EC50 [2] [µM]	Imax reduction with fivefold increase of Hco-ACR-27 versus equal subunit ratios ([2]; 100 μM, p<0.001) [fold]	Emax at 100 µM [2, 9] [%]	Reduction of thrashing motility ([3]; 40 μM Mor, 10 minutes exposure) [%]	IC50 ([4]; Caenorhabditis elegans, 10 min, read-out: IC50 (reduction of thrashing), 10 min drug exposure, gravid adults) [µM]	IC50 ([4]; read-out: IC50 (reduction of thrashing), 10 min drug exposure, gravid adults) [µM]	Percentage reduction of thrashes min^-1 [1, 10] [%]	Percentage reduction of thrashes min^-1 [3, 10] [%]
c1ccc([C@H]2CN3CCSC3=N2)cc1 [Lev, (-)-tetramisole hydrochloride]	no significant change	insensitive	3.46 ± 1.44	4.18 ± 2.89	1.77 ± 1.77	no significant change	5	7 ± 1.1									
Cc1ccsc1/C=C/C1=NCCCN1C [Mor, morantel]			249 ± 11.5	137 ± 19.7	265 ± 29.1		40		93.3	29 ± 1.3	2	249 ± 11.5	62.7	44 ± 1.03	44.1 ± 1		
CN1CCCN=C1/C=C/c1cccs1 [Pyr, pyrantel]			81 ± 6.21	83.1 ± 17.9	84.1 ± 8.54		50	107 ± 1.2		6.8 ± 1.3		81 ± 6.21				65.4	61.6
